Assay results reported in article PMC2346451 (PLoS ONE, 2008).
Read-outs that look alike come from different tables or passages of the source.

Tests used:
[1] = molecular target: rat TRPM8 (rTRPM8) (Rattus norvegicus, UniProt Q8R455); experiment: Whole-cell patch clamp of rat TRPM8 expressed in HEK-293T cells; type: cell-based
Description: (§1) Transformed human embryonic kidney-293 (HEK-293T) cells were grown in Dulbecco's modified Eagle's medium (DMEM)+F-12 supplemented with 10% fetal calf serum, and 1% penicillin/streptomycin in 5% CO2 at 37°C. Cells grown to 90% confluence in 35 mm Petri dishes were transiently transfected with plasmid DNA encoding a TRP channel construct (1 µg). Rat TRPV1 (rTRPV1) was cloned into an enhanced green fluorescent protein-containing vector (pTracer-CMV2; Invitrogen, Carlsbad, CA). Chicken TRPV1 (cTRPV1), the chicken rat TRPV1 chimera (crcTRPV1), rat TRPV2 (rTRPV2), mouse TRPV3 (mTRPV3), mouse TRPV4 (mTRPV4), rat TRPM8 (rTRPM8), and rat TRPA1 (rTRPA1), were cloned into pcDNA3 and co-transfected with enhanced green fluorescent protein (0.1 µg) to follow expression. The cTRPV1 and crcTRPV1 clones were kindly provided by Dr. David Julius. Recordings were carried out 24–36 hours after transfection. Cells were split via trypsin EDTA, plated on glass coverslips at 5–10% confluence, and used 2–3 hours later.
(§2) Electrophysiological experiments were performed using the whole-cell patch-clamp technique at room temperature. Modified Ringer's solution with low chloride and nominal calcium contained (in mM): 130 sodium hydroxide, 5 potassium chloride, 1 magnesium chloride, 10 sodium 4-(2-hydroxyethyl)-1-piperazineethanesulfonic acid, 10 2-(N-morpholino)ethanesulfonic acid, and 20 glucose (pH 7.4; 310 milli-osmolar). […] 2 mM calcium chloride was included in the external solution where noted. To activate TRPV1, the modified Ringer's solution was made at pH 5 (low pH solution) and the chloride concentration was kept to a minimum to prevent contamination of the TRPV1 currents with acid-activated chloride currents. For recordings from heterologously expressing cells, the internal pipette solution contained (in mM): 125 cesium-Methanesulfonate, 10 cesium (1.2-bis(o-aminophenoxy)ethane-N,N,N',N'-tetraacetic acid, 8 sodium chloride, 4 magnesium adenosine triphosphate, and 10 HEPES (pH 7.2; 290 mOSM; nominal free calcium concentrations). For TRPA1 and dorsal root ganglion recordings, the internal pipette solution contained (in mM): 110 cesium-Methanesulfonate, 0.5 cesium4BAPTA, 8 sodium chloride, 0.2 calcium chloride, 4 magnesium-ATP, 4 sodium-GTP, and 10 4-(2-hydroxyethyl)-1-piperazineethanesulfonic acid (pH 7.2; 290 mOSM; 100 nM free calcium internal). MaxChelator was used to calculate the free calcium concentration (http://www.stanford.edu/cpatton/maxc.html).
(§3) Recordings were obtained using an Axopatch 200B amplifier, Digidata 1322A analog-to-digital converter, and pClamp 8.01 software (Molecular Devices, Union City, CA). Data were low-pass filtered at 2 kHz and digitized at 5 kHz. Borosilicate glass pipettes (World Precision Instruments, Sarasota, FL) were typically 3 MΩ pipette resistance after fire polishing. Cell capacitance was measured for each cell, and access resistance compensated to ∼80%. Recordings were begun ∼5 minutes after initial rupture to ensure initial steady state conditions. Current-voltage (I-V) relations were obtained using a ramp protocol. Voltage ramps (400 ms) from −100 to +40 or +100 mV were applied every 1–2 seconds and the holding potential was either −70 mV or 0 mV (see Figure Legends). A 40 ms step was added at the beginning and end of the ramp (i.e. at −100 mV, +40 mV or +100 mV). Liquid junction potentials were not corrected.
(§4) The dose response curves were fit with the Hill equation, where [drawing 8] and [A] is the concentration of agonist or blocker, N is the Hill coefficient, and KD is the [A] for Imeasured/Imax = 0.5. The term apparent dissociation constant is used in place of the half concentration of excitation and inhibition. […] Averaged data are presented as mean±standard error (S.E.) throughout. Statistical analysis included paired and unpaired Student's t-test comparisons of the data; p values are reported in the text.

[2] = molecular target: rat TRPA1 (rTRPA1) (Rattus norvegicus, UniProt Q6RI86); experiment: Whole-cell patch clamp of rat TRPA1 expressed in HEK-293T cells; type: cell-based
Description: as §1, §2, §3, §4

[3] = molecular target: rat TRPV1 (rTRPV1) (Rattus norvegicus, UniProt O35433); experiment: Whole-cell patch clamp of rat TRPV1 expressed in HEK-293T cells; type: cell-based; details: for Increase of agonist-evoked current prior to onset of inhibition: citral 1 mM, n = 8
Description: as §1, §2, §3, §4

[4] = system: chicken rat TRPV1 chimera (crcTRPV1, CRC V2–V4); experiment: Whole-cell patch clamp of chicken rat TRPV1 chimera in HEK-293T cells; type: cell-based; details: n = 6
Description: as §1
Electrophysiological experiments were performed using the whole-cell patch-clamp technique at room temperature. […]
Recordings were obtained using an Axopatch 200B amplifier, Digidata 1322A analog-to-digital converter, and pClamp 8.01 software (Molecular Devices, Union City, CA). […] Cell capacitance was measured for each cell, and access resistance compensated to ∼80%. […]

[5] = no reference given; cited from earlier work

rat TRPM8 (rTRPM8), sequence (Q8R455 whole entry): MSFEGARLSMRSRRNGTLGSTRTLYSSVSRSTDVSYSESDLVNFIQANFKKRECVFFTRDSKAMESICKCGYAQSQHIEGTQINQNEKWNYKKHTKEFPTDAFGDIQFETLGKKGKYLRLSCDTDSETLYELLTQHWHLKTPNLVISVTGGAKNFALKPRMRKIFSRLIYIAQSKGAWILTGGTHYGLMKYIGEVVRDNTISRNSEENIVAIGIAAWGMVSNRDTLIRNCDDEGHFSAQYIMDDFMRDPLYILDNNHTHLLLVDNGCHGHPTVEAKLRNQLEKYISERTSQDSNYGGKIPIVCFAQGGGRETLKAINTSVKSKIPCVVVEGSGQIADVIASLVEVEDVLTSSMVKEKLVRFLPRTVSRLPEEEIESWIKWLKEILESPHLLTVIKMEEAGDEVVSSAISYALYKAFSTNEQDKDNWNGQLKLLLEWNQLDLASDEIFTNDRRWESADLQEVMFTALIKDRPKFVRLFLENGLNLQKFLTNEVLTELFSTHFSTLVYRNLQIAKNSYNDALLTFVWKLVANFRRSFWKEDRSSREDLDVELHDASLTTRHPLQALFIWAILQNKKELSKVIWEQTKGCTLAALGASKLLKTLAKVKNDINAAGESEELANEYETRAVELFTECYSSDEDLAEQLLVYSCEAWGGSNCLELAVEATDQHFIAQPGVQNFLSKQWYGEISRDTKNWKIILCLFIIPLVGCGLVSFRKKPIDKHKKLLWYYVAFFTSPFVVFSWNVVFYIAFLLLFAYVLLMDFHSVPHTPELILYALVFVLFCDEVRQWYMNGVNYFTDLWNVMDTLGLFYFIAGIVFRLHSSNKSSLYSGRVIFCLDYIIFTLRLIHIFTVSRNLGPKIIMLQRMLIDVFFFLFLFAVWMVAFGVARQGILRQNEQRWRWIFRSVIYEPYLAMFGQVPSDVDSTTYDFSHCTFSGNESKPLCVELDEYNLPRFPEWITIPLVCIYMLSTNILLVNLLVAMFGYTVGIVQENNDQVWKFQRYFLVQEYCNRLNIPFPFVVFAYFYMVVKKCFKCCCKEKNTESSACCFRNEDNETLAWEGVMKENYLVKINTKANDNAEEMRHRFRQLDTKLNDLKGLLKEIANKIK
rat TRPA1 (rTRPA1), sequence (Q6RI86 whole entry): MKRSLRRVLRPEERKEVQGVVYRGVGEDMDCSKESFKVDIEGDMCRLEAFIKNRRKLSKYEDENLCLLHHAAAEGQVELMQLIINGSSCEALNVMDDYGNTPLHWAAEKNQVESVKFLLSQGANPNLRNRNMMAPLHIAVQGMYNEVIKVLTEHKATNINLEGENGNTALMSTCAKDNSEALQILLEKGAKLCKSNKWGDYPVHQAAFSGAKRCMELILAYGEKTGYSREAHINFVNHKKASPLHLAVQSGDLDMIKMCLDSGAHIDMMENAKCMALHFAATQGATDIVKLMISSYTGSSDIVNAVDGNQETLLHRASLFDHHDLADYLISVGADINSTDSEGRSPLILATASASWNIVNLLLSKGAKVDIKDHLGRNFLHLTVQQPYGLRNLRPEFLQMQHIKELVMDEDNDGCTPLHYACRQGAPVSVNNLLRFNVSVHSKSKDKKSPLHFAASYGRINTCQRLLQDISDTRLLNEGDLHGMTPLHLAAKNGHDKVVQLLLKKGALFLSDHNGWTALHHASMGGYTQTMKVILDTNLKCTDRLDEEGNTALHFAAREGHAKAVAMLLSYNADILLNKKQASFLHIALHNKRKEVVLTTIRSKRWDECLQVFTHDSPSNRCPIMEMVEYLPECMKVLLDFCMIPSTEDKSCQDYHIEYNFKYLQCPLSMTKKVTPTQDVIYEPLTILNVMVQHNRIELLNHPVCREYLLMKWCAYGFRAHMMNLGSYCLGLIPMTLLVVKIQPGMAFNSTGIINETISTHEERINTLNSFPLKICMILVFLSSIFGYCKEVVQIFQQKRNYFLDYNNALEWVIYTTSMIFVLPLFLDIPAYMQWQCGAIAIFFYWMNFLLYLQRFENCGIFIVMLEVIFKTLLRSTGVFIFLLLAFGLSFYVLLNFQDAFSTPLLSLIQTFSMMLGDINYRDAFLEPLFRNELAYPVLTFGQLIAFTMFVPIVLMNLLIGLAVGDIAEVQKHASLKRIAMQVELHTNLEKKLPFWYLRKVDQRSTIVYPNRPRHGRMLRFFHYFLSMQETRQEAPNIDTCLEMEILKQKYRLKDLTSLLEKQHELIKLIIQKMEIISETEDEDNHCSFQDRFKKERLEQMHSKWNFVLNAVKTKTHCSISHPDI
rat TRPV1 (rTRPV1), sequence (O35433 whole entry): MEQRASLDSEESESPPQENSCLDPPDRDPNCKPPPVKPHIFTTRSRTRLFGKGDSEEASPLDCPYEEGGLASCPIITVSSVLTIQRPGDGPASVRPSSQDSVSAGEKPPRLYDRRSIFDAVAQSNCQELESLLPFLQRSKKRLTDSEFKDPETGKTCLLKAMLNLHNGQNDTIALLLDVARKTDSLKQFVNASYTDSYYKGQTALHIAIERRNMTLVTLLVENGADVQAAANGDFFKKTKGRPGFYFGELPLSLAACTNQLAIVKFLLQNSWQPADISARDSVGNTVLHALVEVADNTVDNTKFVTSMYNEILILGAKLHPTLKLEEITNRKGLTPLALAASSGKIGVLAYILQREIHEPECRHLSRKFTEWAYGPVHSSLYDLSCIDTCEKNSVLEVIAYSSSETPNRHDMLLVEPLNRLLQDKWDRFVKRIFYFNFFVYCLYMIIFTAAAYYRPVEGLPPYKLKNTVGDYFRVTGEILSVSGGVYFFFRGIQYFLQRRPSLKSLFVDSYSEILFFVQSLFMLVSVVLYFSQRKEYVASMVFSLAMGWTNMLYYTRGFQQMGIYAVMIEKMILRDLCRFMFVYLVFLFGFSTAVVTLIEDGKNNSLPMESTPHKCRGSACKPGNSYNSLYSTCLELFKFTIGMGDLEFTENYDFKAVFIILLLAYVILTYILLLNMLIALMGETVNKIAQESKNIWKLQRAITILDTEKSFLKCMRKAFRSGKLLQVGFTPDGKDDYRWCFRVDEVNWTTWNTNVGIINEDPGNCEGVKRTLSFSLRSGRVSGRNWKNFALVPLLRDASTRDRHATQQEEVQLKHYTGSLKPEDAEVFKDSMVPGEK

In the case of `CC(C)=CCCC(C)=CC=O` [citral, 3,7-dimethyl-2,6-octadienal], the “Hill coefficient (activation)” value [1] is reported as 1.6, the “Reversibility of citral inhibition of agonist-evoked current” value [1] is reported as “essentially irreversible” and the “Hill coefficient (inhibition)” value ([1]; +40 mV) is reported as 1.7. For the same compound, the “Increase in TRPM8 current evoked by menthol after citral washout” value ([1]; after 60 seconds washout, n = 3) was 4±2%, the Kd ([1]; citral activation, nominal external calcium, read-out: Activation KD, app) was 33.5 µM and the Kd ([1]; citral block of menthol (1 mM)-evoked current, +40 mV, read-out: Inhibition KD, app) was 188 µM. For the same compound, the Kd ([1]; citral block of menthol (1 mM)-evoked current, −40 mV, read-out: Inhibition KD, app) was 241 µM, the “Agonist efficacy Imenthol (30 µM)/Icitral (300 µM)” value ([1]; fold larger, −40 mV, n = 5) was “Imenthol (30 µM)/Icitral (300 µM) 74±28 fold larger (n = 5; −40 mV)” and the “Effect of citral addition on agonist-induced current” value ([1]; menthol-induced, n = 4) was “not increased”. The “Time for >50% inhibition of peak TRP current in continued presence of citral” value ([1]; n = 7) was ≤ 14 s, the “Hill coefficient (inhibition)” value ([1]; −40 mV) was 2.0 and the “Increase of inward ITRPM8 above baseline” value ([1]; −40 mV) was 2 fold. The “Reversibility of citral inhibition of agonist-evoked current” value ([2]; allyl isothiocyanate-evoked) was “rapidly reversed”, the “Effect of citral addition on agonist-induced current” value ([2]; allyl isothiocyanate-induced, n = 10) was “not increased” and the “TRPA1 current activation by allyl isothiocyanate recovered after citral washout” value ([2]; at 30s, n = 5) was 60±16%. For the same compound, the Activation threshold ([2]; citral activation, bell-shaped dose response, 2 mM external calcium) was “threshold ∼200 µM”, the “Hill coefficient (inhibition)” value ([2]; citral block of allyl isothiocyanate-evoked current) was 1.0 and the “Agonist efficacy IAITC (300 µM)/Icitral (300 µM)” value ([2]; fold larger, −100 mV, n = 27 and 9) was “IAITC (300 µM)/Icitral (300 µM) 1.5 fold larger (n = 27 and 9; −100 mV)”. For the same compound, the Kd ([2]; read-out: Inhibition KD, app) was 254 µM, the “Increase of ITRPA1 above baseline” value ([2]; −100 mV) was 3.1±0.8 fold and the “Reversibility of citral inhibition of agonist-evoked current” value [3] was “essentially irreversible”. For the same compound, the “pH 5-evoked TRPV1 current remaining after citral washout” value ([3]; 30 seconds after citral washout, n = 5) was 0.2±0.1%, the “Hill coefficient (activation)” value ([3]; +40 mV) was 2.9 and the “Increase of agonist-evoked current prior to onset of inhibition” value ([3]; +40 mV) was 1.6±0.2 fold. For the same compound, the “Increase of agonist-evoked current prior to onset of inhibition” value ([3]; −100 mV) was 1.8±0.3 fold, the Kd ([3]; citral activation, +40 mV, nominal external calcium, read-out: Activation KD, app) was 417 µM and the Kd ([3]; citral activation, −40 mV, nominal external calcium, read-out: Activation KD, app) was 465 µM. For the same compound, the “Hill coefficient (inhibition)” value ([3]; citral block of pH5-evoked current) was 1.3, the Kd ([3]; citral block of pH5-evoked current, read-out: Inhibition KD, app) was 187 µM and the “Agonist efficacy IpH5/Icitral (1 mM)” value ([3]; fold larger, −40 mV, n = 3) was “IpH5/Icitral (1 mM) 28±8 fold larger (n = 3; −40 mV)”. For the same compound, the “Time for >50% inhibition of peak TRP current in continued presence of citral” value ([3]; n = 9) was ≤ 14 s, the “Hill coefficient (activation)” value ([3]; −40 mV) was 2.7 and the “Increase of inward ITRPV1 above baseline” value ([3]; −40 mV) was 14 fold. For the same compound, the “Activation of CRC V2–V4 chimera currents” value [4] was “restored citral activation” and the “log P (oil/water) coefficient” value [5] was “three”.
